Laboratory results published in patent publication US20210134398A1, “Combinatorial Chemistry Computational System and Enhanced Selection Method” (Southern Methodist University, priority 2019, published 2021).
pIC50: −log10 of the molar value.

Legend:
[1] = target: P-gp (P-gp over-expressing cell line, DU145TXR) (Homo sapiens, UniProt P08183); assay: Cellular accumulation of experimental compounds by LC-MS/MS with and without tariquidar
Method: Stimulation of basal ATPase by 29-variants was used as an indicator that a compound may be a P-gp transport substrate. Effects on stimulated P-gp ATPase activity indicated whether a compound directly interfered with ATP usage by the protein (***, p<0.001; **, p<0.01; *, p<0.1; NS, not significant). Quantitative cellular accumulation of 29-variants was performed using LC-MS/MS and is presented as a ratio of the cellular amounts of 29-variants in the presence of P-gp inhibitor, tariquidar, divided by amounts accumulated in its absence. […] Binding of an ATP analog, SL-ATP, to P-gp was used to determine whether ATP binding to P-gp was affected by the 29-variants. Values +/−standard deviations are shown for at least three different P-gp preparations and three independent SL-ATP titration experiments. The values for SL-ATP binding in the presence of 29 were taken directly from Brewer et al. (2014).
Intracellular accumulation of compound 29 variants. Cell accumulation assays for each of the 29 variants were performed as in reference^28 to more directly assess whether the compounds were indeed transport substrates for P-gp.
Cellular Accumulation Assays for Experimental P-gp Inhibitors. Cells used (DU145TXR), cell culturing, cell exposure to compounds, cellular handling and extractions were performed as described in^28. LC-MS/MS methods were performed as described in^71 and as modified in^28.

[2] = test system: P-gp overexpressing prostate cancer cell line, DU145TXR; assay: MTT cell viability assay, resensitization to paclitaxel; type: cell-based, human; conditions: Homo sapiens; paclitaxel alone, DU145TXR, 48 hours; read-out: IC50 PTX, PTX alone
Description: The Group 1 ChemGen/docking routine produced variants of P-gp inhibitor 29 resensitize a multidrug resistant, P-gp overexpressing prostate cancer cell line to paclitaxel. The mitochondrial reduction potential of cells is often used as an indicator for cell viability using MTT assays^4. Using these assays it was observed that the five Group 1 derivatives of 29 predicted through the ChemGen/docking routine and synthesized here, 216, 227, 231, 541 and 551, re-sensitized the P-gp overexpressing prostate cancer cell line, DU145TXR^33, to the chemotherapeutic, paclitaxel (FIG. 12, showing results of assays at concentrations of 3 μM, 5 μM, 7 μM, and 10 μM).
Cytotoxicity of the chemotherapeutic, paclitaxel (PTX) to P-gp overexpressing prostate cancer cells, DU145TXR, was determined in the absence and presence of the ChemGen designed 29-variants, 216, 227, 231, 541 and 551. For each experimental compound IC50 values of PTX alone or in the presence of inhibitors, fold improvement of PTX sensitivity in the presence of inhibitor, and fold improvement of PTX sensitivity by variants compared to parental compound 29 are given.
Effects of Group 2 variants on the paclitaxel sensitivity of P-glycoprotein overexpressing prostate cancer cells, DU145TXR. MTT assays were again used to assess the efficacy of the new structural 29-variants on sensitizing the chemotherapy-resistant prostate cancer cell line, DU145TXR, to paclitaxel, at concentrations of 3 μM, 5 μM, 7 μM, and 10 μM as shown in FIG. 15 and Table 4.
MTT cell viability assay. Cells were trypsinized from monolayers and seeded with 3000 cells in 150 μL of complete medium in a 96 well plate. After 24 hours, cells were treated for 48 hours with paclitaxel (Acros Organics, NJ) and/or P-gp inhibitory compounds dissolved in DMSO, or DMSO controls. All additions were diluted into complete medium. After 48 hours of treatment, MTT assays were performed as described^41 using 5 mg/mL of MTT (Acros Organics, NJ) solution prepared in PBS (137 mM NaCl, 2.7 mM KCl, 10 mM Na2HPO4, 1.8 mM KH2PO4, pH 7.4). After 4 hours of incubation with MTT, the media was removed and the formazan crystals were dissolved in 100 μL of DMSO. The absorbance at 570 nm was then measured using a BioTek Cytation 5 imaging multi-mode reader (Bio-Tek, Winooski, Vt.). Percent viability was calculated using DMSO treated cells as representative for 100% viability, according to Equation 1. Background absorbance was determined using MTT and complete medium without cells and subtracted from all the test values. Equation 1:
The results were plotted as the mean with standard deviation (SD) of eight replicates per concentration from at least two independent experiments with n=8. The graphical representations and IC50 values were determined using four parameter variable slope non-linear regression, using the following equation: Y=bottom+(top-bottom)/(1+10^((log IC50−X)*Hill Slope) (GraphPad Prism™, La Jolla Calif., USA, Version 6.05). The reported “fold sensitization” was calculated as follows, per Equation 2: […]

Chain of P-gp (P-gp over-expressing cell line, DU145TXR) (P08183 whole entry): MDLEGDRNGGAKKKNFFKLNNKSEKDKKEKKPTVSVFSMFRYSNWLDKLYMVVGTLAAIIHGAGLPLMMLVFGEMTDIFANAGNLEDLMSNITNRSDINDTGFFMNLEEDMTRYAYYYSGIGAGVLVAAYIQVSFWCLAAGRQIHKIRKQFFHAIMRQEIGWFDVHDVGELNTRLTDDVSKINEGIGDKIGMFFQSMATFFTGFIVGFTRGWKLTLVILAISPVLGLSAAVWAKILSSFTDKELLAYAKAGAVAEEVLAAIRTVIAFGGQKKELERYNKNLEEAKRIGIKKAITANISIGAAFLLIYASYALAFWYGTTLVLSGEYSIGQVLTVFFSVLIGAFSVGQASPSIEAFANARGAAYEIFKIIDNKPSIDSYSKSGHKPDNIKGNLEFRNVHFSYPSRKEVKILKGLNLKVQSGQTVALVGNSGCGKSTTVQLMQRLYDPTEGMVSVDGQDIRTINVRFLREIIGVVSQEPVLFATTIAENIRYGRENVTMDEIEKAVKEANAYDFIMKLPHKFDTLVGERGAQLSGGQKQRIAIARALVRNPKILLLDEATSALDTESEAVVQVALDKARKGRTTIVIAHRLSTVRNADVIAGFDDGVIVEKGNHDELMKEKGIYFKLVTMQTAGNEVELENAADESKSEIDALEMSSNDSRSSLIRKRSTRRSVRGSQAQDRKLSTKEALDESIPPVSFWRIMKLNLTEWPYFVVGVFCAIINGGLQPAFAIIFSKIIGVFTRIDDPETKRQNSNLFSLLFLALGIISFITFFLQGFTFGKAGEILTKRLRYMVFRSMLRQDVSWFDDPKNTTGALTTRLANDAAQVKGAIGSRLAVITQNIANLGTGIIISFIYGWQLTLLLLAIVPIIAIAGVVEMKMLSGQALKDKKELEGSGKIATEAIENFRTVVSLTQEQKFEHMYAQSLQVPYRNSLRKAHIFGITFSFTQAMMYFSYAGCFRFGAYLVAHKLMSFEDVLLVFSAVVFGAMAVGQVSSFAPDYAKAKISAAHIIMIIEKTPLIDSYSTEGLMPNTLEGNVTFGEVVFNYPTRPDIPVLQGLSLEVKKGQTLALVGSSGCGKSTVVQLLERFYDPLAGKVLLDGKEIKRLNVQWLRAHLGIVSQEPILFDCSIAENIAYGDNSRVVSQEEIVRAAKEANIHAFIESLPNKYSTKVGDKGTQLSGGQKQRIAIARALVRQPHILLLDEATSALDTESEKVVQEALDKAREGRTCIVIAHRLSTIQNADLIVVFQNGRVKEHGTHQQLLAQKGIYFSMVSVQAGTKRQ

Row | Transport substrate for P-gp ([1]; DU145TXR accumulation with/without tariquidar (and basal ATPase)) | Intracellular accumulation in absence vs presence of tariquidar (in words) ([1]; DU145TXR, LC-MS/MS) | SMILES | pIC50 [2]
1 | good transport substrate for P-gp | very strong cellular accumulation | COc1cccc2c1C(=O)c1c(O)c3c(c(O)c1C2=O)C[C@@](O)(C(C)=O)C[C@@H]3O[C@H]1C[C@H](N)[C@H](O)[C@H](C)O1 [Daunorubicin, reference compound] | –
2 | – | – | CC(=O)O[C@H]1C(=O)[C@@]2(C)[C@H]([C@H](OC(=O)c3ccccc3)[C@]3(O)C[C@H](OC(=O)[C@H](O)[C@@H](NC(=O)c4ccccc4)c4ccccc4)C(C)=C1C3(C)C)[C@]1(OC(C)=O)CO[C@@H]1C[C@@H]2O [PTX, paclitaxel, reference compound] | 5.67
